Results: US20260097036A1 (Kadmon Corporation, LLC, priority 2022, published 2026)
Where two headings read alike, the source gives them in different places.

Key:
[1] = stability study with pH modifiers, XRPD of isolated solids (samples 2.1-2.6); type: physicochemical; settings: T = 28 days 40° C./75% RH
Method: Samples were prepared containing sodium benzoate as a preservative and with the pH adjusted with either citric acid or tartaric acid which were compared with samples having no pH modifier.
The above samples were prepared for XRPD analysis in three steps: solids were isolated by centrifugation at 3000 rpm for 20 minutes; the supernatant was decanted; and the samples were dried under vacuum at ambient temperature for 18-24 hours overnight. XRPD data of the solid samples was obtained.

[2] = solubility and natural pH of the API; type: physicochemical
[3] = Part 2 relative bioavailability and food effect, plasma PK; type: in vivo, human; settings: for Tlag / AUC % extrap / Lambda-z / half-life / Tmax / AUC(0-inf) / AUC(0-t) / Cmax / Vd/F: plasma; for half-life / Tmax / AUC(0-inf) / AUC(0-t) / Cmax / Vd/F: male, human, 200 mg; for Cmax: read-out: Cmax; for Vd/F: read-out: Vz/F
Method: Subjects underwent preliminary screening procedures to determine their eligibility for Part 2 of the study at the screening visit (Day −28 to Day −2 of Part 2). Subjects who took part in Part 1 of the study were permitted to take part in Part 2.
Three different regimens (G, H, and I), were used over the three periods. In Regimen G, belumosudil was administered in Tablet form (reference); and in Regimens H and I, belumosudil was administered in the form of Oral Liquid Formulation.
In Period 1, Day 1: subjects were randomized prior to administration of the first dose of IMP to 1 of 6 treatment sequences (GHI, HIG, IGH, IHG, GIH and HGI) with 3 subjects assigned to each treatment sequence. On Day 1 of each study period (periods 1, 2 and 3), subjects received the regimens in Table 36:
Regimen H was administered to subjects as a flavorless low sucralose liquid formulation in a fasted state, and Regimens G and I were administered to subjects in a fed state. Regimen G was administered with a total of 240 mL of water. For Regimens H and I, immediately after IMP administration, subjects consumed water to a total volume of 240 mL (including the dosing volume).
Subjects received a single dose of IMP in the morning of Day 1 following an overnight fast of a minimum of 10 h (Regimen H, fasted state) or following a standard breakfast (Regimens G and I, fed state). Blood samples were collected at regular intervals for PK analysis. Following administration of Regimen H, subjects completed a written taste/palatability questionnaire individually and privately.
Subjects were resident in the clinical unit for 10 consecutive nights that covered all 3 treatment periods. All subjects remained on site until 72 h post-final dose for safety and PK assessments. There was a minimum washout of 3 days between each IMP administration. To ensure the ongoing wellbeing of the subjects, a follow-up phone call took place 3 to 7 days post-final dose. If a subject reported any AEs after discharge which represented a cause for concern, they were required to attend the clinical unit for a follow-up assessment. This would have been an unscheduled visit.

[4] = tested on: animal models of cGVHD; settings: in vivo; cited from earlier work
[5] = excipient compatibility testing of dry binary mixes; type: physicochemical; settings: binary mixes 1:1; 2-8° C. and 40° C./75% RH, over a 14-day period
Method: The dry binary mixes were analyzed for appearance and related substances after storage at 2-8° C. (control storage condition) and 40° C./75% RH for 14 days and 28 days. The binary mixes were also tested for visual appearance at initial mixing.

[6] = tested on: pro-fibrotic signaling; settings: in vitro; cited from earlier work
[7] = cited from earlier work
[8] = po, Regimen G: 200 mg Tablet, Fed, single oral dose, geometric mean (CV%)
[9] = po, Regimen H: 200 mg Liquid Formulation, Fasted, single oral dose, geometric mean (CV%)
[10] = po, Regimen I: 200 mg Liquid Formulation, Fed, single oral dose, geometric mean (CV%)

XRPD of isolated solids (form stability) [1]: stable in the formulation
natural pH of API in water ([2]; API in water): ~3 pH
solubility ([2]; at pH 2.0-3.0): soluble
Tlag ([3]; Regimen G: 200 mg Tablet, Fed, single oral dose, healthy male volunteers, median (range)): 0.500 h
AUC % extrap ([3]; Regimen G: 200 mg Tablet, Fed, single oral dose, geometric mean (CV%)): 2.601 (44.8%)
Lambda-z ([3]; Regimen G: 200 mg Tablet, Fed, single oral dose, geometric mean (CV%), individual values where n <= 2): 0.074 (57.7%) l/h
Tlag ([3]; Regimen H: 200 mg Liquid Formulation, Fasted, single oral dose, healthy male volunteers, median (range)): 0.00 h
AUC % extrap ([3]; Regimen H: 200 mg Liquid Formulation, Fasted, single oral dose, geometric mean (CV%)): 2.785 (50.4%)
Lambda-z ([3]; Regimen H: 200 mg Liquid Formulation, Fasted, single oral dose, geometric mean (CV%), individual values where n <= 2): 0.073 (43.5%) l/h
Tlag ([3]; Regimen I: 200 mg Liquid Formulation, Fed, single oral dose, healthy male volunteers, median (range)): 0.00 h
AUC % extrap ([3]; Regimen I: 200 mg Liquid Formulation, Fed, single oral dose, geometric mean (CV%)): 1.918 (34.9%)
Lambda-z ([3]; Regimen I: 200 mg Liquid Formulation, Fed, single oral dose, geometric mean (CV%), individual values where n <= 2): 0.102 (49.2%) l/h
time from which concentrations were evident ([3]; liquid formulation, fasted and fed (Regimens H and I)): 0.5 h
half-life ([3]; oral, Regimen G, tablet fed, read-out: elimination half-lives (range)): 4.84 to 33 h
half-life ([3]; oral, Regimen H, liquid formulation fasted, read-out: elimination half-lives (range)): 5.36 to 23.8 h
half-life ([3]; oral, Regimen I, liquid formulation fed, read-out: elimination half-lives (range)): 2.38 to 15.7 h
half-life ([3]; oral, Regimens G, H, I, read-out: geometric mean half-life (range over regimens)): 6.79 to 9.5 h
Tmax ([3]; po, Regimen G: 200 mg Tablet, Fed, single oral dose, healthy male volunteers, median (range), read-out: Tmax): 3 h
AUC(0-inf) [3, 8]: 10200 ng·h/mL
half-life ([3]; po, Regimen G: 200 mg Tablet, Fed, single oral dose, geometric mean (CV%), individual values where n <= 2, read-out: T1/2 (converted)): 9.39 h
AUC(0-t) ([3]; po, Regimen G: 200 mg Tablet, Fed, single oral dose, geometric mean (CV%), read-out: AUC (0-24)): 9310 ng·h/mL
AUC(0-t) ([3]; po, Regimen G: 200 mg Tablet, Fed, single oral dose, geometric mean (CV%), read-out: AUC (0-last)): 9720 ng·h/mL
Cmax [3, 8]: 1930 ng/mL
Vd/F [3, 8]: 265 L
Tmax ([3]; po, Regimen H: 200 mg Liquid Formulation, Fasted, single oral dose, healthy male volunteers, median (range), read-out: Tmax): 1.5 h
AUC(0-inf) [3, 9]: 8430 ng·h/mL
half-life ([3]; po, Regimen H: 200 mg Liquid Formulation, Fasted, single oral dose, geometric mean (CV%), individual values where n <= 2, read-out: T1/2 (converted)): 9.5 h
AUC(0-t) ([3]; po, Regimen H: 200 mg Liquid Formulation, Fasted, single oral dose, geometric mean (CV%), read-out: AUC (0-24)): 7620 ng·h/mL
AUC(0-t) ([3]; po, Regimen H: 200 mg Liquid Formulation, Fasted, single oral dose, geometric mean (CV%), read-out: AUC (0-last)): 8010 ng·h/mL
Cmax [3, 9]: 1550 ng/mL
Vd/F [3, 9]: 325 L
AUC(0-inf) [3, 10]: 9500 ng·h/mL
half-life ([3]; po, Regimen I: 200 mg Liquid Formulation, Fed, single oral dose, geometric mean (CV%), individual values where n <= 2, read-out: T1/2 (converted)): 6.79 h
AUC(0-t) ([3]; po, Regimen I: 200 mg Liquid Formulation, Fed, single oral dose, geometric mean (CV%), read-out: AUC (0-24)): 9340 ng·h/mL
AUC(0-t) ([3]; po, Regimen I: 200 mg Liquid Formulation, Fed, single oral dose, geometric mean (CV%), read-out: AUC (0-last)): 9570 ng·h/mL
Cmax [3, 10]: 1790 ng/mL
Vd/F [3, 10]: 206 L
Tmax ([3]; po, single oral 200 mg as liquid formulation, fasted state, read-out: median Tmax): 1.5 h
Tmax ([3]; po, single oral 200 mg as tablet reference, fed, read-out: median Tmax): 3 h
compatibility with hydrochloric acid and maleic acid [5]: not compatible
SMILES: CC(C)NC(=O)COc1cccc(-c2nc(Nc3ccc4[nH]ncc4c3)c3ccccc3n2)c1 [Belumosudil, 2-{3-[4-(1H-indazol-5-ylamino)-2-quinazolinyl]phenoxy}-N-(propan-2-yl)acetamide, reference compound]
peak (Cmax) and total exposure (AUC), liquid formulation vs tablet ([3]; both in the fed state, GMR comparison): largely similar to that of the tablet reference
activity in animal models of cGVHD [4]: demonstrated activity
aberrant pro-fibrotic signaling [6]: inhibited aberrant pro-fibrotic signaling
solubility in water [7]: practically insoluble
